Patent publication US20030159953A1, “Carbohydrate medical solution and sulphite stabilisator in a multiple compartment container and use thereof” (priority 2003, published 2003)

How the values were obtained:
[1] = tested on: mouse fibroblasts cells L-929; assay: In vitro assay for cytotoxicity (inhibition of cell growth, ICG); format: cell-based
Experimental: Medical solutions used for peritoneal dialysis were mixed with one part cell growth medium and 10% (volume/volume) fetal calf serum was added (Wieslander et al., 1991, Kidney Int. 40:77-79). Basal cytotoxicity of medical solution used for peritoneal dialysis were determined on mouse fibroblasts cells L-929 (CCL-1; ATTC, Rockville, Md., USA) as described earlier (Wieslander et al. 1993, Advances in Peritoneal Dialys, 9:31-35) and expressed as inhibition of cellgrowth (ICG).

[2] = Determination of acetaldehyde and formaldehyde (HPLC, 2,4-DNPH derivatives); format: physicochemical; settings: Example 5: 1.5% glucose solution, sodium bisulphite 0, 0.5, 1 mM added before or after heat sterilisation 121° C. 1 hour
Experimental: Determination of acetaldehyde and formaldehyde: The samples for the determination of acetaldehyde were diluted 20 times to a final volume of 4 ml, prior to analysis. Acetaldehyde was prepared as hydrazone derivatives using 2,4-DNPH as derivative reagent. The standards were prepared in range 1.1-11.4 μM acetaldehyde, and 1.7-16.7 μM formaldehyde. Standards and samples were prepared by adding 2 ml 0.08% (weight/volume) 2,4-DNPH to 4 ml of each sample. The sample were concentrated on a solid phase extraction C18 column (Bond Elut LRC 200 mg/3 ml) and after rinsing with water, eluted with 1.6 ml acetonitrile. The analytical column was a Supelco C18 column (5 μm, 15 cm×4,6 mm). The elution of the substances was performed at constant flow of 1.7 ml/min by using a linear gradient of acetonitrile/water. The percentage acetonitrile/water (volume/volume) was initially 35/65 and at the gradient stop 12 minutes later 80/20. The wavelenght was set at 240 nm and the injected volume was 20 μl. The limit of quantification was for acetaldehyde. 1.1 μM. And for formaldehyde 1.7 μM.

O=S([O-])O.[Na+] [sodium bisulphite]
inhibition of cell growth (ICG) ([1]; Example 3: bisulphite in glucose compartment, 0-0.5 mM in final solution, 4% glucose, sterilised 121° C. 1 hour, mixed post sterilisation): decrease of the ICG value | inhibition of cell growth (ICG) ([1]; Example 4: sulphite in electrolyte compartment, concentrations in final solution as in example 3, 4% glucose, sterilised 121° C. 1 hour): decrease of the ICG value | inhibition of cell growth (ICG) ([1]; Example 5: 1.5% glucose solution, sodium bisulphite 0, 0.5, 1 mM added before or after heat sterilisation 121° C. 1 hour): decrease of the ICG value | level of acetaldehyde in sterilised solution [2]: decreased levels | level of formaldehyde in sterilised solution [2]: decreased levels
